In US8178535B2, “Substituted sulfonamide compounds having bradykinin 1 receptor activity and use thereof as medicaments” (Gruenenthal GmbH, priority 2008, dated 2012):

Legend:
[1] = molecular target: T1, human B1R receptor (hB1R) (Homo sapiens, UniProt P46663); assay: FLIPR Ca2+ assay (Fluo-4) on CHO K1 cells stably transfected with the human B1R gene; type: cell-based; settings: CHO-K1; test substance 10 μM; agonist Lys-Des-Arg9-bradykinin 0.5 nM; % inhibition compared to the maximum achievable inhibition
T1 construct: host or cells: CHO K1 cells
T1 sequence (P46663 1-353): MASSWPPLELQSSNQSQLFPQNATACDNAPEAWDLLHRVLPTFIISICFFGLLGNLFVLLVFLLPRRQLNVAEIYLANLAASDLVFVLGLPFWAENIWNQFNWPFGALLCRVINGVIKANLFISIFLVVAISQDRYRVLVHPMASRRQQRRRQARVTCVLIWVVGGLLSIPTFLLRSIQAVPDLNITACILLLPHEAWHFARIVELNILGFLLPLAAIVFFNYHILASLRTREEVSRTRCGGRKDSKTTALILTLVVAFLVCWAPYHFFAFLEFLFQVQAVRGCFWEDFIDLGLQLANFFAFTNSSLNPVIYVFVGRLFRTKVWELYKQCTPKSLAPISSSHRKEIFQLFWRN
Protocol: (§1) The agonistic or antagonistic action of compounds can be quantified on the bradykinin 1 receptor (B1R) of humans and rats with ectopically expressing cell lines (CHO K1 cells) and with the aid of a Ca^2+-sensitive dye (Fluo-4) in the fluorescent imaging plate reader (FLIPR). The figure in percent activation refers to the Ca^2+ signal after addition of Lys-Des-Arg^9-bradykinin (0.5 nM) and Des-Arg^9-bradykinin (100 nM). Antagonists result in a suppression of the Ca^2+ inflow after the addition of the agonist. Percent inhibition values are given in comparison to the maximum achievable inhibition. The compounds according to the invention act, for example, on the B1R which is implicated in various disease states. This means that the compounds of the invention are useful as pharmaceutically active substances in medicaments for the treatment and/or inhibition of such disease states.
(§2) The agonistic or antagonistic action of substances can be determined on the bradykinin 1 receptor (B1R) of humans and rats by means of the following assay. According to this assay the Ca^2+ inflow through the channel is quantified by means of a Ca^2+-sensitive dye (Fluo-4 type, Molecular Probes Europe BV, Leiden, Netherlands), in a Fluorescent Imaging Plate Reader (FLIPR, Molecular Devices, Sunnyvale, USA).
(§3) Chinese hamster ovary cells (CHO K1 cells) are used, which are stably transfected with the human B1R gene (hB1R cells, Euroscreen s.a., Gosselies, Belgium), or with the B1R gene of rats (rB1R cells, Axxam, Milan, Italy). For functional investigations these cells are plated out on black 96-well plates with a clear floor (BD Biosciences, Heidelberg, Germany) in a density of 20,000/25,000 cells/well. The cells are incubated overnight with 10 vol. % FBS (foetal bovine serum, Gibco Invitrogen GmbH, Karlsruhe, Germany) at 37° C. and 5% CO2 in a culture medium (hB1R cells: Nutrient Mixture Ham's F12, Gibco Invitrogen GmbH, Karlsruhe, Germany; rB1R cells: D-MEM/F12, Gibco Invitrogen GmbH, Karlsruhe, Germany). The following day the cells are charged for 60 minutes at 37° C. with 2.13 μM Fluo-4 (Molecular Probes Europe BV, Leiden, Netherlands) in HBSS buffer (Hank's buffered saline solution, Gibco Invitrogen GmbH, Karlsruhe, Germany) together with […] (Sigma-Aldrich, Taufkirchen, Germany) and 10 mM HEPES (Sigma-Aldrich, Taufkirchen, Germany).
(§4) The plates are then washed twice with HBSS buffer and HBSS buffer is added which additionally contains 0.1% BSA (bovine serum albumin; Sigma-Aldrich, Taufkirchen, Germany), 5.6 mM glucose and 0.05% gelatin (Merck KGaA, Darmstadt, Germany). After further incubation for 20 minutes at room temperature the plates are used for the Ca^2+ measurement in the FLIPR. The Ca^2+-dependent fluorescence is measured both before and after the addition of substances (λex=488 nm, λem=540 nm). The quantification is carried out by measuring the highest fluorescence intensity (FC, fluorescence counts) over time.
(§5) The FLIPR protocol consists of two substance additions. First, test substances (10 μM) are pipetted onto the cells and the Ca^2+ inflow is compared with the control (hB1R: Lys-Des-Arg9-bradykinin 0.5 nM; rB1R: Des-Arg9-bradykinin 100 nM). This gives the result in percent activation referred to the Ca^2+ signal after addition of Lys-Des-Arg9-bradykinin (0.5 nM), bzw. Des-Arg9-bradykinin (100 nM). After 10 minutes' incubation 0.5 nM Lys-Des-Arg9-bradykinin (hB1R) and 100 nM Des-Arg^9-bradykinin (rB1R) are applied and the inflow of Ca^2+ is likewise determined. Antagonists lead to a suppression of the Ca^2+ inflow. The percent inhibition compared to the maximum achievable inhibition is calculated. The compounds show a good activity on both human and rat receptors.
(§6) The agonistic and antagonistic action of the compounds according to the invention on the bradykinin 1 receptor (B1R) of humans and rats were determined as described above. Antagonists lead to a suppression of the Ca^2+ inflow. […]

[2] = molecular target: T2, B1R receptor of rats (rB1R) (Rattus norvegicus, UniProt P97583); assay: FLIPR Ca2+ assay (Fluo-4) on CHO K1 cells stably transfected with the B1R gene of rats; type: cell-based; settings: CHO-K1; test substance 10 μM; agonist Des-Arg9-bradykinin 100 nM; % inhibition compared to the maximum achievable inhibition
T2 construct: host or cells: CHO K1 cells
T2 sequence (P97583 1-337): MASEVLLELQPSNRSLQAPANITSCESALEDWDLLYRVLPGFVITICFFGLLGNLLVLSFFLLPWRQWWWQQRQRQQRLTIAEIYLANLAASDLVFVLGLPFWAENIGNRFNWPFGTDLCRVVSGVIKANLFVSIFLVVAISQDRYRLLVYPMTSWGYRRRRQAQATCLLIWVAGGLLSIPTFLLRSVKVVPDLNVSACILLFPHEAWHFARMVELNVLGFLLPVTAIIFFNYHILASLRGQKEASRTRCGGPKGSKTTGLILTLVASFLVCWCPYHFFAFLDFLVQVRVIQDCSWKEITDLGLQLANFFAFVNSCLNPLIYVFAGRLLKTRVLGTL
Protocol: as §1, §2, §3, §4, §5, §6

inhibition at 10 µM [1] [%]	inhibition at 10 µM [2] [%]	Structure (SMILES)
99	100	COc1cc(C)c(S(=O)(=O)N2CCCCC2COCC(=O)N2CCn3c(Cc4ccncc4)ccc3C2)c(C)c1 (centres unmarked) [(88), 2-((1-(4-Methoxy-2,6-dimethylphenylsulfonyl)piperidin-2-yl)methoxy)-1-(6-(pyridin-4-ylmethyl)-3,4-dihydropyrrolo[1,2-a]pyrazin-2(1H)-yl)ethanone]
18	91	Cc1cc(C)c(S(=O)(=O)N2CCCCC2COCC(=O)N2CCn3ccnc3C2)c(C)c1 (centres unmarked) [(37), 1-(5,6-dihydroimidazo[1,2-a]pyrazin-7(8H)-yl)-2-((1-(mesitylsulfonyl)piperidin-2-yl)methoxy)ethanone]
64	103	COc1cc(C)c(S(=O)(=O)N2CCCCC2CCCC(=O)N2CCn3c(Cc4cccnc4)ccc3C2)c(C)c1 (centres unmarked) [(105), 4-(1-(4-Methoxy-2,6-dimethylphenylsulfonyl)piperidin-2-yl)-1-(6-(pyridin-3-ylmethyl)-3,4-dihydropyrrolo[1,2-a]pyrazin-2(1H)-yl)butan-1-one]
103	100	CCCCC1c2ccc(CN(C)C)n2CCN1C(=O)COCC1CCCCN1S(=O)(=O)c1c(C)cc(C)cc1C (centres unmarked) [(52), 1-(1-butyl-6-((dimethylamino)methyl)-3,4-dihydropyrrolo[1,2-a]pyrazin-2(1H)-yl)-2-((1-(mesitylsulfonyl)piperidin-2-yl)methoxy)ethanone]
87	102	COc1cc(C)c(S(=O)(=O)N2CCCCC2COCC(=O)N2CCn3cccc3C2CCc2ccccc2)c(C)c1 (centres unmarked) [(60), 2-((1-(4-methoxy-2,6-dimethylphenylsulfonyl)piperidin-2-yl)methoxy)-1-(1-phenethyl-3,4-dihydropyrrolo[1,2-a]pyrazin-2(1H)-yl)ethanone]
80	103	O=C(CC1CCCCN1S(=O)(=O)c1cccc(C(F)(F)F)c1)N1CCn2c(Cc3cccnc3)ccc2C1 (centres unmarked) [(97), 1-(6-(Pyridin-3-ylmethyl)-3,4-dihydropyrrolo[1,2-a]pyrazin-2(1H)-yl)-2-(1-(3-(trifluoromethyl)phenylsulfonyl)piperidin-2-yl)ethanone]
26	75	O=C(CC1CCCCN1S(=O)(=O)c1cccc(C(F)(F)F)c1)N1CCn2c(CCc3ccncc3)ccc2C1 (centres unmarked) [(107), 1-(6-(2-(Pyridin-4-yl)ethyl)-3,4-dihydropyrrolo[1,2-a]pyrazin-2(1H)-yl)-2-(1-(3-(trifluoromethyl)phenylsulfonyl)piperidin-2-yl)ethanone]
91	99	COc1cc(C)c(S(=O)(=O)N2CCCCC2CCCC(=O)N2CCn3c(ccc3-c3cccnc3)C2)c(C)c1 (centres unmarked) [(92), 4-(1-(4-Methoxy-2,6-dimethylphenylsulfonyl)piperidin-2-yl)-1-(6-(pyridin-3-yl)-3,4-dihydropyrrolo[1,2-a]pyrazin-2(1H)-yl)butan-1-one]
95	100	COc1cc(C)c(S(=O)(=O)N2CCCCC2CCCC(=O)N2CCn3c(CCc4cccnc4)ccc3C2)c(C)c1 (centres unmarked) [(103), 4-(1-(4-Methoxy-2,6-dimethylphenylsulfonyl)piperidin-2-yl)-1-(6-(2-(pyridin-3-yl)ethyl)-3,4-dihydropyrrolo[1,2-a]pyrazin-2(1H)-yl)butan-1-one]
102	99	COc1cc(C)c(S(=O)(=O)N2CCCCC2COCC(=O)N2CCn3cccc3C2c2ccc(Cl)nc2)c(C)c1 (centres unmarked) [(22), 1-(1-(6-chloropyridin-3-yl)-3,4-dihydropyrrolo[1,2-a]pyrazin-2(1H)-yl)-2-((1-(4-methoxy-2,6-dimethylphenylsulfonyl)piperidin-2-yl)methoxy)ethanone]
105	106	COc1cc(C)c(S(=O)(=O)N2CCCCC2COCC(=O)N2CCn3cc(CN4CCCCC4)nc3C2)c(C)c1 (centres unmarked) [(2), 2-((1-(4-methoxy-2,6-dimethylphenylsulfonyl)piperidin-2-yl)methoxy)-1-(2-(piperidin-1-ylmethyl)-5,6-dihydroimidazo[1,2-a]pyrazin-7(8H)-yl)ethanone]
43	49	O=C(CC1CCCCN1S(=O)(=O)c1cccc(C(F)(F)F)c1)N1CCn2cc(-c3ccncc3)nc2C1 (centres unmarked) [(104), 1-(2-(Pyridin-4-yl)-5,6-dihydroimidazo[1,2-a]pyrazin-7(8H)-yl)-2-(1-(3-(trifluoromethyl)phenylsulfonyl)piperidin-2-yl)ethanone]
61	99	COc1cc(C)c(S(=O)(=O)N2CCCCC2COCC(=O)N2CCn3cccc3C2c2ccc(C(F)(F)F)cc2F)c(C)c1 (centres unmarked) [(32), 1-(1-(2-fluoro-4-(trifluoromethyl)phenyl)-3,4-dihydropyrrolo[1,2-a]pyrazin-2(1H)-yl)-2-((1-(4-methoxy-2,6-dimethylphenylsulfonyl)piperidin-2-yl)methoxy)ethanone]
85	103	Cc1cc(C)c(S(=O)(=O)N2CCCCC2COCC(=O)N2CCn3c(C)ccc3C2C(C)C)c(C)c1 (centres unmarked) [(59), 1-(1-isopropyl-6-methyl-3,4-dihydropyrrolo[1,2-a]pyrazin-2(1H)-yl)-2-((1-(mesitylsulfonyl)piperidin-2-yl)methoxy)ethanone]
100	56	CN1CCN(Cc2ccc3n2CCN(C(=O)COCC2CCc4ccccc4N2S(=O)(=O)c2ccc(Cl)c(Cl)c2)C3)CC1 (centres unmarked) [(11), 2-((1-(3,4-dichlorophenylsulfonyl)-1,2,3,4-tetrahydroquinolin-2-yl)methoxy)-1-(6-((4-methylpiperazin-1-yl)methyl)-3,4-dihydropyrrolo[1,2-a]pyrazin-2(1H)-yl)ethanone]
90	90	O=C(CC1CCCCN1S(=O)(=O)c1cccc(C(F)(F)F)c1)N1CCn2c(CCc3cccnc3)ccc2C1 (centres unmarked) [(98), 1-(6-(2-(Pyridin-3-yl)ethyl)-3,4-dihydropyrrolo[1,2-a]pyrazin-2(1H)-yl)-2-(1-(3-(trifluoromethyl)phenylsulfonyl)piperidin-2-yl)ethanone]
